Read-outs that look alike come from different tables or passages of the source.
Experiments:
Type in all cases: cell-based, human
[1] = test system: K-562; assay: NCI-60 cell line screen (SRB), K-562
Description: (§1) Drug sensitivity data are provided as GI50s (concentrations required to inhibit growth by 50%). The first row of the text file identifies cell lines, separated by tabs. Subsequent rows contain compound number, compound name, and GI50 for each cell line, each separated by a tab. […] For a typical screening experiment, cells are inoculated into 96 well microtiter plates in 100 μL at plating densities ranging from 5,000 to 40,000 cells/well depending on the doubling time of individual cell lines. After cell inoculation, the microtiter plates are incubated at 37° C., 5% CO2, 95% air and 100% relative humidity for 24 h prior to addition of experimental drugs. After 24 h, two plates of each cell line are fixed in situ with TCA, to represent a measurement of the cell population for each cell line at the time of drug addition (Tz). Experimental drugs are solubilized in dimethyl sulfoxide at 400-fold the desired final maximum test concentration and stored frozen prior to use. At the time of drug addition, an aliquot of frozen concentrate is thawed and diluted to twice the desired final maximum test concentration with complete medium containing 50 μg/ml gentamicin. Additional four, 10-fold or one-half log serial dilutions are made to provide a total of five drug concentrations plus control. Aliquots of 100 μl of these different drug dilutions are added to the appropriate microtiter wells already containing 100 μl of medium, resulting in the required final drug concentrations. Following drug addition, the plates are incubated for an additional 48 h at 37° C., 5% CO2, 95% air, and 100% relative humidity. For adherent cells, the assay is terminated by the addition of cold TCA. Cells are fixed in situ by the gentle addition of 50 μl of cold 50% (w/v) TCA (final concentration, 10% TCA) and incubated for 60 minutes at 4° C. The supernatant is discarded, and the plates are washed five times with tap water and air dried. Sulforhodamine B (SRB) solution (100 μl) at 0.4% (w/v) in 1% acetic acid is added to each well, and plates are incubated for 10 minutes at room temperature. After staining, unbound dye is removed by washing five times with 1% acetic acid and the plates are air dried. Bound stain is subsequently solubilized with 10 mM trizma base, and the absorbance is read on an automated plate reader at a wavelength of 515 nm. For suspension cells, the methodology is the same except that the assay is terminated by fixing settled cells at the bottom of the wells by gently adding 50 μl of 80% TCA (final concentration, 16% TCA). Using the seven absorbance measurements [time zero, (Tz), control growth, (C), and test growth in the presence of drug at the five concentration levels (Ti)], the percentage growth is calculated at each of the drug concentrations levels. […]

[2] = test system: M14; assay: NCI-60 cell line screen (SRB), M14
Description: as §1

[3] = test system: PC-3; assay: NCI-60 cell line screen (SRB), PC-3
Description: as §1

[4] = test system: BT-549; assay: NCI-60 cell line screen (SRB), BT-549
Description: as §1

[5] = test system: NCI-H460; assay: NCI-60 cell line screen (SRB), NCI-H460
Description: as §1

[6] = test system: SK-MEL-2; assay: NCI-60 cell line screen (SRB), SK-MEL-2
Description: as §1

[7] = test system: Breast Cancer cell lines; assay: NCI-60 cell line screen, Breast Cancer panel average; details: read-out: GI50 Average
Description: as §1

[8] = test system: NCI-H23; assay: NCI-60 cell line screen (SRB), NCI-H23
Description: as §1

[9] = test system: UACC-257; assay: NCI-60 cell line screen (SRB), UACC-257
Description: as §1

[10] = test system: LOX IMVI; assay: NCI-60 cell line screen (SRB), LOX IMVI
Description: as §1

[11] = test system: NCI/ADR-RES; assay: NCI-60 cell line screen (SRB), NCI/ADR-RES
Description: as §1

[12] = test system: SK-MEL-28; assay: NCI-60 cell line screen (SRB), SK-MEL-28
Description: as §1

[13] = test system: MDA-MB-468; assay: NCI-60 cell line screen (SRB), MDA-MB-468
Description: as §1

[14] = test system: SN12C; assay: NCI-60 cell line screen (SRB), SN12C
Description: as §1

[15] = test system: Ovarian Cancer cell lines; assay: NCI-60 cell line screen, Ovarian Cancer panel average; details: read-out: GI50 Average
Description: as §1

[16] = test system: U-251; assay: NCI-60 cell line screen (SRB), U-251
Description: as §1

[17] = test system: KM12; assay: NCI-60 cell line screen (SRB), KM12
Description: as §1

[18] = test system: HT29; assay: NCI-60 cell line screen (SRB), HT29
Description: as §1

[19] = test system: T-47D; assay: NCI-60 cell line screen (SRB), T-47D
Description: as §1

[20] = test system: TK-10; assay: NCI-60 cell line screen (SRB), TK-10
Description: as §1

[21] = test system: Prostate Cancer cell lines; assay: NCI-60 cell line screen, Prostate Cancer panel average; details: read-out: GI50 Average
Description: as §1

[22] = test system: Leukemia cell lines; assay: NCI-60 cell line screen, Leukemia panel average; details: read-out: GI50 Average
Description: as §1

[23] = test system: SK-OV-3; assay: NCI-60 cell line screen (SRB), SK-OV-3
Description: as §1

[24] = test system: Melanoma cell lines; assay: NCI-60 cell line screen, Melanoma panel average; details: read-out: GI50 Average
Description: as §1

[25] = test system: UACC-62; assay: NCI-60 cell line screen (SRB), UACC-62
Description: as §1

CCCC[Si](C)(C)COc1ccc(C(=O)N[C@@H](Cc2ccc(OCc3c(Cl)cccc3Cl)cc2)C(=O)NC2CC(C)(C)NC(C)(C)C2)cc1 [GH1503, N^α-{4-[(butyldimethylsilyl)methoxy]-benzoyl}-N-(2,2,6,6-tetramethylpiperidin-4-yl)-[O-(2,6-dichlorobenzyl)-L-tyrosinamide]]
GI50 ([1]; Homo sapiens, K562, Leukemia, K-562, 48 h drug incubation, read-out: GI50): 0.333 µM
GI50 ([2]; Homo sapiens, Melanoma, M14, 48 h drug incubation, read-out: GI50): 0.334 µM
GI50 ([3]; Homo sapiens, Prostate Cancer, PC-3, 48 h drug incubation, read-out: GI50): 0.49 µM
GI50 ([4]; Homo sapiens, Breast Cancer, BT-549, 48 h drug incubation, read-out: GI50): 2.11 µM
GI50 ([5]; Homo sapiens, Non-Small Cell Lung Cancer, NCI-H460, 48 h drug incubation, read-out: GI50): 0.259 µM
GI50 ([6]; Homo sapiens, Melanoma, SK-MEL-2, 48 h drug incubation, read-out: GI50): 1.56 µM
GI50 ([7]; Homo sapiens, average over Breast Cancer panel): 1.39 µM
GI50 ([8]; Homo sapiens, Non-Small Cell Lung Cancer, NCI-H23, 48 h drug incubation, read-out: GI50): 1.56 µM
GI50 ([9]; Homo sapiens, Melanoma, UACC-257, 48 h drug incubation, read-out: GI50): 1.87 µM
GI50 ([10]; Homo sapiens, Melanoma, 48 h drug incubation, read-out: GI50): 0.191 µM
GI50 ([11]; Homo sapiens, Ovarian Cancer, 48 h drug incubation, read-out: GI50): 1.25 µM
GI50 ([12]; Homo sapiens, Melanoma, SK-MEL-28, 48 h drug incubation, read-out: GI50): 1.58 µM
GI50 ([13]; Homo sapiens, Breast Cancer, MDA-MB-468, 48 h drug incubation, read-out: GI50): 1.54 µM
GI50 ([14]; Homo sapiens, Renal Cancer, 48 h drug incubation, read-out: GI50): 0.613 µM
GI50 ([15]; Homo sapiens, average over Ovarian Cancer panel): 1.05 µM
GI50 ([16]; Homo sapiens, CNS Cancer, U-251, 48 h drug incubation, read-out: GI50): 0.234 µM
GI50 ([17]; Homo sapiens, Colon Cancer, KM12, 48 h drug incubation, read-out: GI50): 0.382 µM
GI50 ([18]; Homo sapiens, HT-29, Colon Cancer, HT29, 48 h drug incubation, read-out: GI50): 0.342 µM
GI50 ([19]; Homo sapiens, T47D, Breast Cancer, T-47D, 48 h drug incubation, read-out: GI50): 1.84 µM
GI50 ([20]; Homo sapiens, Renal Cancer, TK-10, 48 h drug incubation, read-out: GI50): 1.89 µM
GI50 ([21]; Homo sapiens, average over Prostate Cancer panel): 0.382 µM
GI50 ([22]; Homo sapiens, average over Leukemia panel): 0.572 µM
GI50 ([23]; Homo sapiens, Ovarian Cancer, SK-OV-3, 48 h drug incubation, read-out: GI50): 2.03 µM
GI50 ([24]; Homo sapiens, average over Melanoma panel): 1.13 µM
GI50 ([25]; Homo sapiens, Melanoma, UACC-62, 48 h drug incubation, read-out: GI50): 1.5 µM

CCOP(=O)(OCC)C(NC(=O)[C@H](Cc1ccc(-c2ccccc2)cc1)NC(=O)c1ccc(OCCC[Si](C)(C)C)cc1)P(=O)(OCC)OCC [GH1505, N^α-{4-[3-(trimethylsilyl)propoxy]-benzoyl}-N-[bis(dietoxyphosphoryl)methyl]-(4-phenyl-L-phenylalaninamide)]
GI50 ([1]; Leukemia, K-562, 48 h drug incubation, read-out: GI50): 3.46 µM
GI50 ([2]; Melanoma, M14, 48 h drug incubation, read-out: GI50): 2.1 µM
GI50 ([3]; Prostate Cancer, PC-3, 48 h drug incubation, read-out: GI50): 2.1 µM
GI50 ([4]; Breast Cancer, BT-549, 48 h drug incubation, read-out: GI50): 2.09 µM
GI50 ([5]; Non-Small Cell Lung Cancer, NCI-H460, 48 h drug incubation, read-out: GI50): 1.97 µM
GI50 ([6]; Melanoma, SK-MEL-2, 48 h drug incubation, read-out: GI50): 2.11 µM
GI50 ([7]; average over Breast Cancer panel): 2.17 µM
GI50 ([8]; Non-Small Cell Lung Cancer, NCI-H23, 48 h drug incubation, read-out: GI50): 3.05 µM
GI50 ([9]; Melanoma, UACC-257, 48 h drug incubation, read-out: GI50): 2.42 µM
GI50 ([10]; Melanoma, 48 h drug incubation, read-out: GI50): 1.85 µM
GI50 ([11]; Ovarian Cancer, 48 h drug incubation, read-out: GI50): 3.31 µM
GI50 ([12]; Melanoma, SK-MEL-28, 48 h drug incubation, read-out: GI50): 1.76 µM
GI50 ([13]; Breast Cancer, MDA-MB-468, 48 h drug incubation, read-out: GI50): 1.72 µM
GI50 ([14]; Renal Cancer, 48 h drug incubation, read-out: GI50): 1.71 µM
GI50 ([15]; average over Ovarian Cancer panel): 2.6 µM
GI50 ([16]; CNS Cancer, U-251, 48 h drug incubation, read-out: GI50): 2.09 µM
GI50 ([17]; Colon Cancer, KM12, 48 h drug incubation, read-out: GI50): 2.61 µM
GI50 ([18]; Colon Cancer, HT29, 48 h drug incubation, read-out: GI50): 2.02 µM
GI50 ([19]; Breast Cancer, T-47D, 48 h drug incubation, read-out: GI50): 3.1 µM
GI50 ([20]; Renal Cancer, TK-10, 48 h drug incubation, read-out: GI50): 2.5 µM
GI50 ([21]; average over Prostate Cancer panel): 2.02 µM
GI50 ([22]; average over Leukemia panel): 2.8 µM
GI50 ([23]; Ovarian Cancer, SK-OV-3, 48 h drug incubation, read-out: GI50): 2.59 µM
GI50 ([24]; average over Melanoma panel): 1.92 µM
GI50 ([25]; Melanoma, UACC-62, 48 h drug incubation, read-out: GI50): 1.62 µM

CC1(C)CC(NC(=O)[C@H](Cc2ccc(OCc3c(Cl)cccc3Cl)cc2)NC(=O)c2ccc(OCCC[Si](C)(C)C)cc2)CC(C)(C)N1 [GH1501, N^α-{4-[3-(trimethylsilyl)propoxy]-benzoyl}-N-(2,2,6,6-tetramethylpiperidin-4-yl)-[O-(2,6-dichlorobenzyl)-L-tyrosinamide]]
GI50 ([1]; Homo sapiens, K562, 48 h): 0.322 µM
GI50 ([2]; Homo sapiens, M14, 48 h): 0.341 µM
GI50 ([3]; Homo sapiens, PC-3, 48 h): 1.32 µM
GI50 ([4]; Homo sapiens, BT-549, 48 h): 2.01 µM
GI50 ([5]; Homo sapiens, NCI-H460, 48 h): 0.253 µM
GI50 ([6]; Homo sapiens, SK-MEL-2, 48 h): 1.77 µM
GI50 ([7]; Homo sapiens): 1.46 µM
GI50 ([8]; Homo sapiens, NCI-H23, 48 h): 1.65 µM
GI50 ([9]; Homo sapiens, UACC-257, 48 h): 1.88 µM
GI50 ([10]; Homo sapiens, 48 h): 0.197 µM
GI50 ([11]; Homo sapiens, 48 h): 1.48 µM
GI50 ([12]; Homo sapiens, SK-MEL-28, 48 h): 1.5 µM
GI50 ([13]; Homo sapiens, MDA-MB-468, 48 h): 1.7 µM
GI50 ([14]; Homo sapiens, 48 h): 0.564 µM
GI50 ([15]; Homo sapiens): 1.37 µM
GI50 ([16]; Homo sapiens, U-251, 48 h): 0.23 µM
GI50 ([17]; Homo sapiens, KM12, 48 h): 0.363 µM
GI50 ([18]; Homo sapiens, HT-29, 48 h): 0.263 µM
GI50 ([19]; Homo sapiens, T47D, 48 h): 1.9 µM
GI50 ([20]; Homo sapiens, TK-10, 48 h): 1.85 µM
GI50 ([21]; Homo sapiens): 0.834 µM
GI50 ([22]; Homo sapiens): 0.802 µM
GI50 ([23]; Homo sapiens, SK-OV-3, 48 h): 2.08 µM
GI50 ([24]; Homo sapiens): 1.18 µM
GI50 ([25]; Homo sapiens, UACC-62, 48 h): 1.49 µM
